Measured values taken from ChEMBL document CHEMBL5131495, “Discovery of unique thiazolidinone-conjugated coumarins as novel broad spectrum antibacterial agents” (Eur J Med Chem, 2022).
≈ marks a conversion by molar mass, not a printed value.

Tests used:
Format in all cases: functional
[1] = tested on: Staphylococcus aureus; assay: Antibacterial activity against Staphylococcus aureus assessed as inhibition of bacterial growth
[2] = tested on: Staphylococcus aureus; assay: Antibacterial activity against methicillin resistant Staphylococcus aureus N315 assessed as inhibition of bacterial growth
[3] = tested on: Enterococcus faecalis; assay: Antibacterial activity against Enterococcus faecalis assessed as inhibition of bacterial growth
[4] = tested on: Staphylococcus aureus; assay: Antibacterial activity against Staphylococcus aureus ATCC 25923 assessed as inhibition of bacterial growth
[5] = tested on: Staphylococcus aureus; assay: Antibacterial activity against Staphylococcus aureus ATCC 29213 assessed as inhibition of bacterial growth
[6] = tested on: Klebsiella pneumoniae; assay: Antibacterial activity against Klebsiella pneumoniae assessed as inhibition of bacterial growth
[7] = tested on: Escherichia coli; assay: Antibacterial activity against Escherichia coli assessed as inhibition of bacterial growth
[8] = tested on: Escherichia coli; assay: Antibacterial activity against Escherichia coli ATCC 25922 assessed as inhibition of bacterial growth
[9] = tested on: Pseudomonas aeruginosa; assay: Antibacterial activity against Pseudomonas aeruginosa assessed as inhibition of bacterial growth
[10] = tested on: Pseudomonas aeruginosa; assay: Antibacterial activity against Pseudomonas aeruginosa ATCC 27853 assessed as inhibition of bacterial growth
[11] = tested on: Acinetobacter baumannii; assay: Antibacterial activity against Acinetobacter baumannii assessed as inhibition of bacterial growth

Row | Structure (SMILES) | MIC [1] | MIC [2] | MIC [3] | MIC [4] | MIC [5] | MIC [6] | MIC [7] | MIC [8] | MIC [9] | MIC [10] | MIC [11]
1 | CCn1cc(C(=O)O)c(=O)c2cc(F)c(N3CCNCC3)cc21 [NORFLOXACIN] | 2 µg/mL (≈ 6.26 µM) | 4 µg/mL (≈ 12.5 µM) | 4 µg/mL (≈ 12.5 µM) | 4 µg/mL (≈ 12.5 µM) | 2 µg/mL (≈ 6.26 µM) | 4 µg/mL (≈ 12.5 µM) | 2 µg/mL (≈ 6.26 µM) | 4 µg/mL (≈ 12.5 µM) | 1 µg/mL (≈ 3.13 µM) | 4 µg/mL (≈ 12.5 µM) | 4 µg/mL (≈ 12.5 µM)
2 | Cc1cc(=O)oc2cc(/N=C3/S/C(=C\C4CCCCC4)C(=O)N3CCO)ccc12 | 256 µg/mL (≈ 621 µM) | 256 µg/mL (≈ 621 µM) | 256 µg/mL (≈ 621 µM) | 256 µg/mL (≈ 621 µM) | 16 µg/mL (≈ 38.8 µM) | 256 µg/mL (≈ 621 µM) | 256 µg/mL (≈ 621 µM) | 256 µg/mL (≈ 621 µM) | 256 µg/mL (≈ 621 µM) | 16 µg/mL (≈ 38.8 µM) | 64 µg/mL (≈ 155 µM)
3 | Cc1cc(=O)oc2cc(/N=C3/S/C(=C\c4cccs4)C(=O)N3CCO)ccc12 | 4 µg/mL (≈ 9.7 µM) | 128 µg/mL (≈ 310 µM) | 4 µg/mL (≈ 9.7 µM) | 32 µg/mL (≈ 77.6 µM) | 1 µg/mL (≈ 2.42 µM) | 64 µg/mL (≈ 155 µM) | 32 µg/mL (≈ 77.6 µM) | 32 µg/mL (≈ 77.6 µM) | 16 µg/mL (≈ 38.8 µM) | 1 µg/mL (≈ 2.42 µM) | 1 µg/mL (≈ 2.42 µM)
4 | Cc1cc(=O)oc2cc(/N=C3/S/C(=C\c4ccc(F)cc4F)C(=O)N3CCO)ccc12 | 32 µg/mL (≈ 72.3 µM) | 64 µg/mL (≈ 145 µM) | 2 µg/mL (≈ 4.52 µM) | 4 µg/mL (≈ 9.04 µM) | 32 µg/mL (≈ 72.3 µM) | 64 µg/mL (≈ 145 µM) | 64 µg/mL (≈ 145 µM) | 128 µg/mL (≈ 289 µM) | 64 µg/mL (≈ 145 µM) | 32 µg/mL (≈ 72.3 µM) | 64 µg/mL (≈ 145 µM)
5 | Cc1cc(=O)oc2cc(/N=C3/S/C(=C\c4ccccc4)C(=O)N3CCO)ccc12 | 64 µg/mL (≈ 157 µM) | 64 µg/mL (≈ 157 µM) | 128 µg/mL (≈ 315 µM) | 128 µg/mL (≈ 315 µM) | 128 µg/mL (≈ 315 µM) | 256 µg/mL (≈ 630 µM) | 256 µg/mL (≈ 630 µM) | 256 µg/mL (≈ 630 µM) | 64 µg/mL (≈ 157 µM) | 64 µg/mL (≈ 157 µM) | 1 µg/mL (≈ 2.46 µM)
6 | Cc1cc(=O)oc2cc(/N=C3/S/C(=C\c4c[nH]c5cc(Cl)ccc45)C(=O)N3CCO)ccc12 | 16 µg/mL (≈ 33.3 µM) | 8 µg/mL (≈ 16.7 µM) | 4 µg/mL (≈ 8.33 µM) | 8 µg/mL (≈ 16.7 µM) | 64 µg/mL (≈ 133 µM) | 8 µg/mL (≈ 16.7 µM) | 8 µg/mL (≈ 16.7 µM) | 16 µg/mL (≈ 33.3 µM) | 128 µg/mL (≈ 267 µM) | 64 µg/mL (≈ 133 µM) | 4 µg/mL (≈ 8.33 µM)
7 | Cc1cc(=O)oc2cc(/N=C3/SCC(=O)N3CCO)ccc12 | 128 µg/mL (≈ 402 µM) | 128 µg/mL (≈ 402 µM) | 128 µg/mL (≈ 402 µM) | 16 µg/mL (≈ 50.3 µM) | 64 µg/mL (≈ 201 µM) | 128 µg/mL (≈ 402 µM) | 2 µg/mL (≈ 6.28 µM) | 64 µg/mL (≈ 201 µM) | 128 µg/mL (≈ 402 µM) | 32 µg/mL (≈ 101 µM) | 0.5 µg/mL (≈ 1.57 µM)
8 | Cc1cc(=O)oc2cc(/N=C3/S/C(=C\c4ccco4)C(=O)N3CCO)ccc12 | 128 µg/mL (≈ 323 µM) | 8 µg/mL (≈ 20.2 µM) | 16 µg/mL (≈ 40.4 µM) | 256 µg/mL (≈ 646 µM) | 32 µg/mL (≈ 80.7 µM) | 128 µg/mL (≈ 323 µM) | 128 µg/mL (≈ 323 µM) | 4 µg/mL (≈ 10.1 µM) | 64 µg/mL (≈ 161 µM) | 32 µg/mL (≈ 80.7 µM) | 1 µg/mL (≈ 2.52 µM)
9 | Cc1cc(=O)oc2cc(/N=C3/S/C(=C\c4ccc(C#N)cc4)C(=O)N3CCO)ccc12 | 1 µg/mL (≈ 2.32 µM) | 2 µg/mL (≈ 4.64 µM) | 4 µg/mL (≈ 9.27 µM) | 8 µg/mL (≈ 18.5 µM) | 128 µg/mL (≈ 297 µM) | 128 µg/mL (≈ 297 µM) | 256 µg/mL (≈ 593 µM) | 256 µg/mL (≈ 593 µM) | 128 µg/mL (≈ 297 µM) | 256 µg/mL (≈ 593 µM) | 0.5 µg/mL (≈ 1.16 µM)
10 | Cc1cc(=O)oc2cc(/N=C3/S/C(=C\c4ccc(Cl)cc4)C(=O)N3CCO)ccc12 | 128 µg/mL (≈ 290 µM) | 16 µg/mL (≈ 36.3 µM) | 128 µg/mL (≈ 290 µM) | 8 µg/mL (≈ 18.1 µM) | 4 µg/mL (≈ 9.07 µM) | 128 µg/mL (≈ 290 µM) | 64 µg/mL (≈ 145 µM) | 2 µg/mL (≈ 4.54 µM) | 2 µg/mL (≈ 4.54 µM) | 8 µg/mL (≈ 18.1 µM) | 32 µg/mL (≈ 72.6 µM)
